Assay [1] relates to non‐transfected HEK‐293T cells. In words: Whole-cell endogenous currents in non-transfected cells with extracellular A9C. Type of assay: cell-based. To be noted: +100 mV, 3000 μM [A9C]ext; without A9C 3.6 ± 0.8. The procedure:
Current versus V m relationships were constructed by measuring currents in response to 1 s V m steps (test pulses) from −100 to +100 mV in 40 mV increments (unless stated otherwise) after a 1 s V m step to +70 mV (pre‐pulse). Pulses were elicited every 2 s from a holding V m of 0 mV. Steady‐state currents were measured at the end of the test pulses. As detailed in the Results, in the presence of 300 nM [Ca^2+]i and extracellular A9C, the test‐pulse currents reached a peak within the first ~50 ms of the test pulse. These peak currents were also measured and plotted against the V m of the test pulse. Current density was obtained by dividing the current amplitude for the cell capacitance.
To test the possibility that A9C activated endogenous currents in HEK‐293T cells, the effect of [A9C]ext (3000 μM) on non‐transfected cells was assessed. No significant increase in current was observed relative to the small endogenous currents measured in non‐transfected cells in the absence of [A9C]ext (Figure 1A). For example, at +100 mV, the current recorded from non‐transfected HEK‐293T cells in the absence and presence of 3000 μM [A9C]ext was 3.6 ± 0.8 pA∙pF^−1 (n = 6) and 3.7 ± 0.7 pA∙pF^−1 (n = 6) respectively.

Another assay has as its target T1, Mouse TMEM16A (Mus musculus, UniProt Q8BHY3).
T1 construct: expressed in transfected cells; host or cells: HEK-293T
T1 sequence (Q8BHY3 1-960): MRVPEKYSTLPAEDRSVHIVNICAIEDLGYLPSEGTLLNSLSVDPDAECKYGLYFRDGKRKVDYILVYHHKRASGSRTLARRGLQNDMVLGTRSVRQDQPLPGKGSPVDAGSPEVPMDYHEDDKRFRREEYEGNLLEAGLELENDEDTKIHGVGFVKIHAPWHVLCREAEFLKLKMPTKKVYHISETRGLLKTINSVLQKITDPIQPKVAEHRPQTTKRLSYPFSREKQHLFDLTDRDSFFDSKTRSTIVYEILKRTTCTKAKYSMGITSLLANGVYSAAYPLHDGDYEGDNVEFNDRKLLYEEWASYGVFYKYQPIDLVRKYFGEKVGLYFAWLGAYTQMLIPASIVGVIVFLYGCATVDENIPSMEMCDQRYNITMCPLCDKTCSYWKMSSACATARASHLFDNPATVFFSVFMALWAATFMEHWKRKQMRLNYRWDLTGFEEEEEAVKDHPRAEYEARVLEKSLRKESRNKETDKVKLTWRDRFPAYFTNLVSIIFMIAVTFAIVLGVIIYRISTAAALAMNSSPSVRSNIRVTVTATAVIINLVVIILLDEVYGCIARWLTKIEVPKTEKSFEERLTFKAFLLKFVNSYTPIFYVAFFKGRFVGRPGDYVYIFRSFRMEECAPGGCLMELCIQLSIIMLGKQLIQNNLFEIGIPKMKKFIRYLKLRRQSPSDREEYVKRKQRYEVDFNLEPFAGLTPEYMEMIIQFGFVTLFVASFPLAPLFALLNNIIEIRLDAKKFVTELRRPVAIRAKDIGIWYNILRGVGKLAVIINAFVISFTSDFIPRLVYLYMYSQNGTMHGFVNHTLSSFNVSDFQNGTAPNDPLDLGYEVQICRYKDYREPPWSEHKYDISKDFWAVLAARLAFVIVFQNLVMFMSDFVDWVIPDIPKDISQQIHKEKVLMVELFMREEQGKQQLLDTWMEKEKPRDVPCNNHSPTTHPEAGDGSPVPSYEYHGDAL
In words: Stationary noise analysis of whole-cell TMEM16A currents. Type of assay: cell-based. The conditions noted are these: +70 mV, 12.5 μM [Ca2+]i; for P o: control 0.78 ± 0.02. As for the experimental part: For non‐stationary noise analysis (Heinemann and Conti, 1992; Tammaro and Ashcroft, 2007), 80–200 identical pulses to a test potential of −70 mV (filtered at 10 kHz and sampled at 50 kHz) were applied, and the mean response, I, was calculated. The variance, σ ^2, was computed from the average squared difference of consecutive traces. Background variance and current at 0 mV were subtracted, and the variance–mean plot was fit by (4) σ^2=iI−I^2/N,
with the single channel current, i, and the number of channels, N, as free parameters.
TMEM16A channels are almost instantaneously activated by changes in V m in the presence of high [Ca^2+]i (12.5 μM) (e.g. Adomaviciene et al., 2013). The lack of slow time‐dependent changes in current amplitude under these conditions makes non‐stationary noise analysis unfeasible. Thus, for experiments carried out in high [Ca^2+]i, stationary noise analysis was performed instead. In the absence or presence of a fixed [A9C]ext, 10 tracts (each 600 ms in duration) of stationary currents measured at +70 mV were low‐pass filtered at 10 kHz and sampled at 50 kHz. For each tract of current, the variance and mean were calculated. The variance–mean plots obtained in the absence and presence of various [A9C]ext were fitted simultaneously with Equation (4).
Stationary noise analysis was used to determine if A9C block manifests as a change in i and/or P o of TMEM16A. Experiments were conducted in the presence of 12.5 μM [Ca^2+]i to enable examination of the effect of A9C block in the absence of A9C‐mediated activation. Mean current and variance were measured in tracts of stationary currents recorded in the absence or presence of different [A9C]ext.
With this assumption in mind, the variance–mean plots were fitted with Equation (4) (Figure 4C). The fits yielded a single value of i of 0.27 ± 0.04 pA (n = 5). P o values arising from the fits were 0.78 ± 0.02 for control (n = 5), 0.30 ± 0.08 at 100 μM [A9C]ext (n = 5) and 0.04 ± 0.01 at 1000 μM [A9C]ext (n = 5) (Figure 4D).

In the next assay the target is Xenopus laevis TMEM16A. To be noted: +80 mV, ref Reyes et al. (2015); cited from earlier work.

SMILES strings stand for the structures.

Regarding `O=C(O)c1c2ccccc2cc2ccccc12` [A9C, Anthracene‐9‐carboxylic acid], in assay [1], the “current density in non-transfected HEK-293T cells” value is 3.7 ± 0.7 pA∙pF^−1. Also, the P o is reported as 0.30 ± 0.08 on Mouse TMEM16A (100 μM [A9C]ext) and 0.04 ± 0.01 at Mouse TMEM16A (1000 μM [A9C]ext). At Mouse TMEM16A (single value from simultaneous fit in absence and presence of [A9C]ext), the “single channel current i” value was determined as 0.27 ± 0.04 pA. The Ki at Xenopus laevis TMEM16A is about 90 µM.
